Patent US20260174692A1, “AEROSOL COMPOSITION” (UPyTher B.V., priority 2023, published 2026)

Columns and labels:
[1] = In vitro release of TLR-agonists from hydrogel; format: physicochemical; conditions: 6 and 10 wt. % hydrogel formulations; ammonium carbonate buffer
Experimental: The TLR-agonist resiquimod (synonym R848) was loaded from a stock solution (50 mM in DMSO) to 1.27 mM in the hydrogel. The TLR-agonist telratolimod (synonym MEDI9197) was loaded from a stock solution (10 mM in DMSO) to 0.5 mM in the hydrogel.
The drug loaded solution (100 μL) was transferred to a Millicell insert, which was placed in a 24-wells plate filled with PBS pH 7.4 (700 μL). At set time points the PBS was refreshed and the removed PBS was analyzed for R848 content UV absorbance at 320 nm. For MEDI9197, PBS was substituted for a volatile ammonium carbonate buffer and a HPLC-MS method was used. Release experiments were performed with n=3.

[2] = In vitro release of ipilimumab from hydrogel; format: physicochemical; conditions: 10 wt % UPy-PEG10k hydrogel; PBS pH 7.4
Experimental: The monoclonal antibody ipilimumab was loaded from a stock solution ([…] in PBS) to 3 μg/μl in the hydrogel. The drug loaded solution (50 μL) was transferred to 96-wells filter plate filled with PBS pH 7.4 (250 μL). At set time points the PBS was refreshed and the removed PBS was analyzed for antibody content with a Fortebio Octet interferometer.

[3] = cited from earlier work

With `CCCCCCCCCCCCCCCCCC(=O)NCCCCOn1c(CCCC)nc2c(N)nc3ccccc3c21` [MEDI9197, telratolimod] the “release rate from hydrogel” value [1] was “released slower than MMC”.
For “ipilimumab: monoclonal antibody, checkpoint inhibitor (CTLA-4), loaded to 3 μg/μl in the hydrogel”, the “duration of antibody release” value [2] was “released for multiple weeks”.
In the case of `O=C1[O][Pt]2([NH][C@@H]3CCCC[C@H]3[NH]2)[O]C1=O` [oxaliplatin], the “Cmax, ePIPAC” value ([3]; administered by ePIPAC) is listed as 2670 to 3280 ng/mL, the “AUCmax, systemic” value ([3]; after systemic chemotherapy) is listed as 51400 to 118000 ng·h/mL and the “Cmax, systemic” value ([3]; after systemic chemotherapy) is listed as 1610 to 1920 ng/mL.
